Test results: US8987502B2, “Oleanolic acid amidate derivatives, preparation methods and uses thereof” (Hangzhou Bensheng Pharmaceutical Co., Ltd., priority 2011, dated 2015)
Values after ≈ are worked out from the molar mass of the structure shown.

What was measured:
SK-OV-3 = assay: MTT solid tumor cell proliferation inhibition, SK-OV-3; type: cell-based, human; details: for inhibition at 16 µg/mL / IC50: Homo sapiens; for inhibition at 16 µg/mL: SK-OV-3, 16 μg/mL compound, 72 h, read-out: IR (inhibition rate); for IC50: SK-OV-3, 72 h, MTT
Method: (§1) Human solid tumor cell lines: Hep-2 (laryngeal carcinoma), A549 (human lung cancer), CaES-17 (esophageal cancer cell), PC-3 (prostate cancer), CNE (nasopharyngeal carcinoma cell), and SK-OV-3 (ovarian cancer cell), all of which are purchased from China Center For Type Culture Collection; RKO (human colon adenocarcinoma cell), MGC 803 (human gastric cancer cell), MG63 (osteosarcoma) and U87 MG (malignant glioma cell), all of which are purchased from Fuxiang Bio-tech Co. Ltd., Shanghai, China; PANC-1 (pancreatic cancer), Hep G2 (human liver cancer cell), Becap37 (human breast cancer cell), and Hela (human cervical cancer cell), all of which are donated by Cancer Research Institute of Zhejiang University, China.
(§2) Obtaining 4000 well-growing human solid tumor cells and inoculating them into wells of a 96-well cell culture plate. The culture medium is DMEM High Glucose cell culture medium containing 10% fetal bovine serum. The plate is placed in a carbon dioxide cell incubator (5% CO2) at 37° C. for 24 hours for incubation. After being added with the amidated oleanolic acid derivatives of different concentrations and mixed uniformly, the plate is placed in a carbon dioxide cell incubator (5% CO2) at 37° C. for 72 hours for incubation. Then the relative number of the living cells is determined by the MTT method. In this experiment, the cell proliferation inhibition rate in control group (not treated with any compound) is set as 0%.

PANC-1 = assay: MTT solid tumor cell proliferation inhibition, PANC-1; type: cell-based, human; details: for inhibition at 16 µg/mL / IC50: Homo sapiens; for inhibition at 16 µg/mL: PANC-1, 16 μg/mL compound, 72 h, read-out: IR (inhibition rate); for IC50: PANC-1, 72 h, MTT
Method: as §1, §2

Hela = assay: MTT solid tumor cell proliferation inhibition, Hela; type: cell-based, human; details: for inhibition at 16 µg/mL / IC50: Homo sapiens, Hela, 72 h; for inhibition at 16 µg/mL: 16 μg/mL compound, read-out: IR (inhibition rate); for IC50: MTT
Method: as §1, §2

Becap37 = assay: MTT solid tumor cell proliferation inhibition, Becap37; type: cell-based; details: Homo sapiens; for inhibition at 16 µg/mL: Becap37, 16 μg/mL compound, 72 h, read-out: IR (inhibition rate); for IC50: Becap37, 72 h, MTT
Method: as §1, §2

K562/adr = assay: MTT leukemia cell proliferation inhibition, K562/adr; type: cell-based; details: Homo sapiens, 72 h; for inhibition at 16 µg/mL: 16 μg/mL compound, read-out: IR (inhibition rate); for IC50: MTT
Description: (§3) Leukemia cell lines: leukemia cell lines: K562/adr (drug-resistant, chronic myeloid leukemia, CML), NB4 (acute promyelocytic leukemia, AML), Kasumi-1 (acute myeloid leukemia M2 type, AML-M2), Jurkat (acute lymphoblastic leukemia, ALL), all of which are donated by Cancer Research Institute of Zhejiang University, China; and H9 (acute lymphoblastic leukemia, ALL), which is purchased from China Center for Type Culture Collection (CCTCC).
(§4) Reagents: The standard sample of oleanolic acid (OA) is purchased from Hua Kang Pharmaceutical Raw Material Factory, Shifang City, Sichuan, China; and the amidated oleanolic acid derivatives are prepared according to the present invention.
(§5) Obtaining 6000 well-growing leukemia cells and inoculating them into wells of a 96-well cell culture plate. The culture medium is the 1640 cell culture medium containing 10% fetal bovine serum. After adding the amidated oleanolic acid derivatives of different concentrations and mixing uniformly, placing the plate in a carbon dioxide cell incubator (5% CO2) at 37° C. and incubated for 72 hours. Then the relative number of viable cells is determined by the MTT method. In this experiment, the cell proliferation inhibition rate in control group (not treated with any compound) is set as 0%.

A549 = assay: MTT solid tumor cell proliferation inhibition, A549; type: cell-based, human; details: Homo sapiens; for inhibition at 16 µg/mL: A549, 16 μg/mL compound, 72 h, read-out: IR (inhibition rate); for IC50: A549, 72 h, MTT
Method: as §1, §2

RKO = assay: MTT solid tumor cell proliferation inhibition, RKO; type: cell-based; details: Homo sapiens, 72 h; for inhibition at 16 µg/mL: 16 μg/mL compound, read-out: IR (inhibition rate); for IC50: MTT
Method: as §1, §2

Jurkat = assay: MTT leukemia cell proliferation inhibition, Jurkat; type: cell-based; details: Homo sapiens, 72 h; for inhibition at 16 µg/mL: 16 μg/mL compound, read-out: IR (inhibition rate); for IC50: MTT
Description: as §3, §4, §5

MG 63 = assay: MTT solid tumor cell proliferation inhibition, MG 63; type: cell-based, human; details: for IC50: Homo sapiens, MG 63, 72 h, MTT; for IR (inhibition rate): MG 63, 16 μg/mL compound, 72 h
Method: as §1, §2

Kasumi-1 = assay: MTT leukemia cell proliferation inhibition, Kasumi-1; type: cell-based; details: Homo sapiens; for inhibition at 16 µg/mL: Kasumi-1, 16 μg/mL compound, 72 h, read-out: IR (inhibition rate); for IC50: Kasumi-1, 72 h, MTT
Description: as §3, §4, §5

MGC803 = assay: MTT solid tumor cell proliferation inhibition, MGC803; type: cell-based, human; details: for inhibition at 16 µg/mL / IC50: Homo sapiens, MGC-803; for inhibition at 16 µg/mL: MGC803, 16 μg/mL compound, 72 h, read-out: IR (inhibition rate); for IC50: MGC803, 72 h, MTT
Method: as §1, §2

U87 MG = assay: MTT solid tumor cell proliferation inhibition, U87 MG; type: cell-based, human; details: Homo sapiens, U-87 MG, U87 MG, 72 h; for inhibition at 16 µg/mL: 16 μg/mL compound, read-out: IR (inhibition rate); for IC50: MTT
Method: as §1, §2

Hep G2 = assay: MTT solid tumor cell proliferation inhibition, Hep G2; type: cell-based; details: Homo sapiens, HepG2; for inhibition at 16 µg/mL: Hep G2, 16 μg/mL compound, 72 h, read-out: IR (inhibition rate); for IC50: Hep G2, 72 h, MTT
Method: as §1, §2

Hep-2 = assay: MTT solid tumor cell proliferation inhibition, Hep-2; type: cell-based, human; details: Homo sapiens; for inhibition at 16 µg/mL: Hep-2, 16 μg/mL compound, 72 h, read-out: IR (inhibition rate); for IC50: Hep-2, 72 h, MTT
Method: as §1, §2

CaES-17 = assay: MTT solid tumor cell proliferation inhibition, CaES-17; type: cell-based, human; details: Homo sapiens, CaEs17; for inhibition at 16 µg/mL: CaES-17, 16 μg/mL compound, 72 h, read-out: IR (inhibition rate); for IC50: CaES-17, 72 h, MTT
Method: as §1, §2

PC-3 = assay: MTT solid tumor cell proliferation inhibition, PC-3; type: cell-based, human; details: for inhibition at 16 µg/mL / IC50: Homo sapiens; for inhibition at 16 µg/mL: PC-3, 16 μg/mL compound, 72 h, read-out: IR (inhibition rate); for IC50: PC-3, 72 h, MTT
Method: as §1, §2

H9 = assay: MTT leukemia cell proliferation inhibition, H9; type: cell-based, human; details: for improvement of cell inhibition rate as compared with oleanolic acid: H9 cells; for inhibition at 16 µg/mL / IC50: Homo sapiens; for inhibition at 16 µg/mL: H9, 16 μg/mL compound, 72 h, read-out: IR (inhibition rate); for IC50: H9, 72 h, MTT
Description: as §3, §4, §5

CNE = assay: MTT solid tumor cell proliferation inhibition, CNE; type: cell-based, human; details: for inhibition at 16 µg/mL / IC50: Homo sapiens, CNE, 72 h; for inhibition at 16 µg/mL: 16 μg/mL compound, read-out: IR (inhibition rate); for IC50: MTT
Method: as §1, §2

RPMI8226 = assay: MTT multiple myeloma cell proliferation inhibition, RPMI8226; type: cell-based; details: Homo sapiens, RPMI-8226; for inhibition at 16 µg/mL: RPMI8226, 16 μg/mL compound, 72 h, read-out: IR (inhibition rate); for IC50: RPMI8226, 72 h, MTT
Method: Multiple myeloma cell lines: RPMI8226 (multiple myeloma), purchased from Fuxiang Bio-tech Co. Ltd., Shanghai, China.
as §5

NB4 = assay: MTT leukemia cell proliferation inhibition, NB4; type: cell-based; details: Homo sapiens, NB-4; for inhibition at 16 µg/mL: NB4, 16 μg/mL compound, 72 h, read-out: IR (inhibition rate); for IC50: NB4, 72 h, MTT
Description: as §3, §4, §5

CC1(C)CC[C@]2(NC(=O)c3cccnc3Cl)CC[C@]3(C)C(=CC[C@@H]4[C@@]5(C)CC[C@H](O)C(C)(C)[C@@H]5CC[C@]43C)[C@@H]2C1 [BS-OA-096]
inhibition at 16 µg/mL (SK-OV-3): 97%
IC50 (SK-OV-3): 10.1 µg/mL (≈ 17.8 µM)
improvement of cell inhibition rate as compared with oleanolic acid (SK-OV-3; SKOV-3 cells): > 12 fold
inhibition at 16 µg/mL (PANC-1): 59.1%
IC50 (PANC-1): 14.7 µg/mL (≈ 25.9 µM)
improvement of inhibition rate as compared with oleanolic acid (PANC-1; PANC-1 cells): ~7 fold
improvement of inhibition rate as compared with oleanolic acid (Hela; Hela cells): ~4 fold
inhibition at 16 µg/mL (Hela): 88.9%
IC50 (Hela): 9.43 µg/mL (≈ 16.6 µM)
inhibition at 16 µg/mL (Becap37): 39.3%
IC50 (Becap37): > 16 µg/mL
inhibition at 16 µg/mL (K562/adr): 81.9%
IC50 (K562/adr): 8.53 µg/mL (≈ 15 µM)
inhibition at 16 µg/mL (A549): 18.7%
IC50 (A549): > 16 µg/mL
inhibition at 16 µg/mL (RKO): 59.4%
IC50 (RKO): 14.7 µg/mL (≈ 26 µM)
inhibition at 16 µg/mL (Jurkat): 55.3%
IC50 (Jurkat): 15.3 µg/mL (≈ 27 µM)
IC50 (MG 63): 13.8 µg/mL (≈ 24.3 µM)
IR (inhibition rate) (MG 63): 78.1%
inhibition at 16 µg/mL (Kasumi-1): 33.6%
IC50 (Kasumi-1): > 16 µg/mL
inhibition at 16 µg/mL (MGC803): 70%
IC50 (MGC803): 13.6 µg/mL (≈ 23.9 µM)
improvement of inhibition rate as compared with oleanolic acid (MGC803; MGC803 cells): ~3 fold
inhibition at 16 µg/mL (U87 MG): 38.5%
IC50 (U87 MG): > 16 µg/mL
inhibition at 16 µg/mL (Hep G2): 40.1%
IC50 (Hep G2): 18.5 µg/mL (≈ 32.6 µM)
inhibition at 16 µg/mL (Hep-2): 20.6%
IC50 (Hep-2): > 16 µg/mL
inhibition at 16 µg/mL (CaES-17): 39.8%
IC50 (CaES-17): > 16 µg/mL
inhibition at 16 µg/mL (PC-3): 48.1%
IC50 (PC-3): 18.3 µg/mL (≈ 32.2 µM)
improvement of cell inhibition rate as compared with oleanolic acid (H9): ~4 fold
inhibition at 16 µg/mL (H9): 84%
IC50 (H9): 10.7 µg/mL (≈ 18.9 µM)
improvement of inhibition rate as compared with oleanolic acid (CNE; CNE cells): ~2 fold
inhibition at 16 µg/mL (CNE): 63.9%
IC50 (CNE): 14 µg/mL (≈ 24.7 µM)
inhibition at 16 µg/mL (RPMI8226): 96.9%
IC50 (RPMI8226): 9.2 µg/mL (≈ 16.2 µM)
inhibition at 16 µg/mL (NB4): 100%
IC50 (NB4): 11.2 µg/mL (≈ 19.7 µM)

CC1(C)CC[C@]2(NC(=O)C3CC3)CC[C@]3(C)C(=CC[C@@H]4[C@@]5(C)CC[C@H](O)C(C)(C)[C@@H]5CC[C@]43C)[C@@H]2C1 [BS-OA-097]
inhibition at 16 µg/mL (SK-OV-3): 68.9%
IC50 (SK-OV-3): 7.63 µg/mL (≈ 15.4 µM)
inhibition at 16 µg/mL (PANC-1): 38.8%
IC50 (PANC-1): > 16 µg/mL
inhibition at 16 µg/mL (Hela): 64.4%
IC50 (Hela): 11.9 µg/mL (≈ 24 µM)
inhibition at 16 µg/mL (Becap37): 41.3%
IC50 (Becap37): > 16 µg/mL
inhibition at 16 µg/mL (K562/adr): 91.3%
IC50 (K562/adr): 2.4 µg/mL (≈ 4.84 µM)
inhibition at 16 µg/mL (A549): 38.1%
IC50 (A549): > 16 µg/mL
inhibition at 16 µg/mL (RKO): 29%
IC50 (RKO): > 16 µg/mL
inhibition at 16 µg/mL (Jurkat): 56.6%
IC50 (Jurkat): 14.3 µg/mL (≈ 28.9 µM)
IC50 (MG 63): 13.2 µg/mL (≈ 26.5 µM)
IR (inhibition rate) (MG 63): 78.6%
inhibition at 16 µg/mL (Kasumi-1): 42.9%
IC50 (Kasumi-1): > 16 µg/mL
inhibition at 16 µg/mL (MGC803): 56.1%
IC50 (MGC803): 14.4 µg/mL (≈ 29 µM)
inhibition at 16 µg/mL (U87 MG): 37.4%
IC50 (U87 MG): > 16 µg/mL
inhibition at 16 µg/mL (Hep G2): 35.1%
IC50 (Hep G2): > 16 µg/mL
inhibition at 16 µg/mL (Hep-2): 28.5%
IC50 (Hep-2): > 16 µg/mL
inhibition at 16 µg/mL (CaES-17): 45.7%
IC50 (CaES-17): 18.9 µg/mL (≈ 38.1 µM)
inhibition at 16 µg/mL (PC-3): 56.6%
IC50 (PC-3): 13.1 µg/mL (≈ 26.3 µM)
improvement of cell inhibition rate as compared with oleanolic acid (PC-3; PC-3 cells): ~2 fold
improvement of cell inhibition rate as compared with oleanolic acid (H9): ~4 fold
inhibition at 16 µg/mL (H9): 85.3%
IC50 (H9): 6.3 µg/mL (≈ 12.7 µM)
inhibition at 16 µg/mL (CNE): 40%
IC50 (CNE): > 16 µg/mL
inhibition at 16 µg/mL (RPMI8226): 95.3%
IC50 (RPMI8226): 3.51 µg/mL (≈ 7.08 µM)
inhibition at 16 µg/mL (NB4): 93.4%
IC50 (NB4): 6.51 µg/mL (≈ 13.1 µM)
